Assay in all cases: KiNativ, MOLM13 live cells
What all share (format): cell-based

One assay concerns the target NDR2 (Homo sapiens, UniProt Q9Y2H1). The note with it: MOLM-13; 100 nM, 2 hours; Lys1; read-out: Inhibition vs DMSO. The protocol: (§1) Samples were analyzed by KiNativ in situ kinase profiling by ActivX Biosciences.
The target in a further assay is T1, PIP4K2C (Homo sapiens, UniProt Q8TBX8).
T1 sequence (Q8TBX8 1-421): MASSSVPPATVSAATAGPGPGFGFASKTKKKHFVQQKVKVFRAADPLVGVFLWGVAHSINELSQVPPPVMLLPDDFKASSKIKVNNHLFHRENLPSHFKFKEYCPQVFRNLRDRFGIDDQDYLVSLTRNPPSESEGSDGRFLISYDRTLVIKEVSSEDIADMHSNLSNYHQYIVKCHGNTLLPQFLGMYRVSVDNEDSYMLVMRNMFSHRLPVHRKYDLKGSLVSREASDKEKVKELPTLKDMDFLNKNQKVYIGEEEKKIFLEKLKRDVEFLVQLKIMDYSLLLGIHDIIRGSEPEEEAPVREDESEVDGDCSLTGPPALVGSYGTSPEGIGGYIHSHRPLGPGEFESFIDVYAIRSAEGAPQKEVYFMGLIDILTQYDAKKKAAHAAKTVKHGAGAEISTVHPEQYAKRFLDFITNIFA
Particulars: MOLM-13, 2 h, 100 nM, ATP, read-out: Inhibition vs DMSO. The protocol:
as §1

For a further assay, the target named is MAST3 (Homo sapiens, UniProt O60307). Particulars: MOLM-13; 100 nM, 2 hours; Lys2; read-out: Inhibition vs DMSO. As to the method: as §1
For another assay, the target named is T2, TLK1 (Homo sapiens, UniProt Q9UKI8).
T2 sequence (Q9UKI8 1-766): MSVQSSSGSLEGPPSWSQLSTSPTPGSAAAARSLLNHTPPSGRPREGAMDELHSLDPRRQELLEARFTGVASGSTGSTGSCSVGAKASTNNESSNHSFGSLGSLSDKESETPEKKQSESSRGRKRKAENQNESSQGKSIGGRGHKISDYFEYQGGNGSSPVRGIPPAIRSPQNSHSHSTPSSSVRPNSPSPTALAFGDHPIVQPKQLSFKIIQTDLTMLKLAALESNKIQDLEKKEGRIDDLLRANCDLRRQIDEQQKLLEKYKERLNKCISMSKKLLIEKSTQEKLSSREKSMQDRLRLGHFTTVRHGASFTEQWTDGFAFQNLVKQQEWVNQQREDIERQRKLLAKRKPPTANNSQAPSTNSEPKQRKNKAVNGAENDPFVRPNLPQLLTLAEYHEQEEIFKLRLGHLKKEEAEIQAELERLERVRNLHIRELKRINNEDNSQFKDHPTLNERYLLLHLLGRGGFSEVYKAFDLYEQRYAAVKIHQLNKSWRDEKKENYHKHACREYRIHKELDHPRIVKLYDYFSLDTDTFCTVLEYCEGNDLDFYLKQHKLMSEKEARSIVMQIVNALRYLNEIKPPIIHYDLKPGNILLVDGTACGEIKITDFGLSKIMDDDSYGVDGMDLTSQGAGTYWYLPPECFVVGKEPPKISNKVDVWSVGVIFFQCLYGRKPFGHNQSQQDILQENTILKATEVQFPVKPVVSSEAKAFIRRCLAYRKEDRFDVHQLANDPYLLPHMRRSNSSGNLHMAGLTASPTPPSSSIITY
Particulars: MOLM-13; 100 nM, 2 hours; Lys2; read-out: Inhibition vs DMSO. The protocol:
as §1

For a further assay, the target named is T3, RSK1 domain2 (Homo sapiens, UniProt Q15418).
T3 construct: RSK1 domain2
Particulars: MOLM-13; 100 nM, 2 hours; Lys2; read-out: Inhibition vs DMSO. As to the method: as §1

The target in another assay is T4, STLK5 (Homo sapiens, UniProt Q7RTN6).
T4 sequence (Q7RTN6 1-431): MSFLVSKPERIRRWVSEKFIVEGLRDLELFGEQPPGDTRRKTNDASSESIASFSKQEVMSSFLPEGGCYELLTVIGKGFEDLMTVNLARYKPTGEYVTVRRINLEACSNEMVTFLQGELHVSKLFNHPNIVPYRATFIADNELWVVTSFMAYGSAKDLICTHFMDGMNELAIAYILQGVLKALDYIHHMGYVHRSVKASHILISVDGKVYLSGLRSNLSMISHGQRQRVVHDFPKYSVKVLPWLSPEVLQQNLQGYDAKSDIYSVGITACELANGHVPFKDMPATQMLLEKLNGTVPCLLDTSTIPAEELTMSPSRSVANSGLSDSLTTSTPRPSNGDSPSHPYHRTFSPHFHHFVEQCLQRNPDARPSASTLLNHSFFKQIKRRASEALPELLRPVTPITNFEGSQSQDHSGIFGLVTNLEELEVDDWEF
Particulars: MOLM-13, 2 h, 100 nM. The protocol:
as §1

The next assay addresses CDK10 (Homo sapiens, UniProt Q15131). Particulars: MOLM-13; 100 nM, 2 hours; Lys2; read-out: Inhibition vs DMSO. As to the method:
as §1

In the next assay the target is SLK (Homo sapiens, UniProt Q9H2G2). Particulars: MOLM-13; 100 nM, 2 hours; Lys2; read-out: Inhibition vs DMSO. As to the method: as §1
In the next assay the target is Erk2 (Homo sapiens, UniProt P28482). Particulars: MOLM-13; 100 nM, 2 hours; Lys2; read-out: Inhibition vs DMSO. As to the method: as §1
The next assay deals with MAP3K5 (Homo sapiens, UniProt Q99683). Particulars: MOLM-13; 100 nM, 2 hours; Lys2; read-out: Inhibition vs DMSO. The protocol: as §1
The next assay deals with ZAK (Homo sapiens, UniProt Q9NYL2). Particulars: MOLM-13; 100 nM, 2 hours; Lys1; read-out: Inhibition vs DMSO. As to the method:
as §1

SMILES strings stand for the structures. Like-named read-outs stand apart in the source and are kept apart here.

This is an account of results in article PMC7714403 (JCI Insight, 2020).

The term inhibition denotes the relative decrease from the control value, in per cent.

Erk2, sequence (P28482 whole entry): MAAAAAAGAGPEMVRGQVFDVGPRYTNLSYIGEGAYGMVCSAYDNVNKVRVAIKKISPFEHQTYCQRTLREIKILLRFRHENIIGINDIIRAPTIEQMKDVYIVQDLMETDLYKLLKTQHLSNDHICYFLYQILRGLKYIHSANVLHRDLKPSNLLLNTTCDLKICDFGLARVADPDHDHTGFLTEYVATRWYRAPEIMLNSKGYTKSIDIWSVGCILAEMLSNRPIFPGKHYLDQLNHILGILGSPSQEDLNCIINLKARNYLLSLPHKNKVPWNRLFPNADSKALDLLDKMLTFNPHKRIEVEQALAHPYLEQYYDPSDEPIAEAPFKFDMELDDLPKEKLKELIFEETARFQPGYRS
T3 sequence (Q15418 whole entry, the tested form may be a part): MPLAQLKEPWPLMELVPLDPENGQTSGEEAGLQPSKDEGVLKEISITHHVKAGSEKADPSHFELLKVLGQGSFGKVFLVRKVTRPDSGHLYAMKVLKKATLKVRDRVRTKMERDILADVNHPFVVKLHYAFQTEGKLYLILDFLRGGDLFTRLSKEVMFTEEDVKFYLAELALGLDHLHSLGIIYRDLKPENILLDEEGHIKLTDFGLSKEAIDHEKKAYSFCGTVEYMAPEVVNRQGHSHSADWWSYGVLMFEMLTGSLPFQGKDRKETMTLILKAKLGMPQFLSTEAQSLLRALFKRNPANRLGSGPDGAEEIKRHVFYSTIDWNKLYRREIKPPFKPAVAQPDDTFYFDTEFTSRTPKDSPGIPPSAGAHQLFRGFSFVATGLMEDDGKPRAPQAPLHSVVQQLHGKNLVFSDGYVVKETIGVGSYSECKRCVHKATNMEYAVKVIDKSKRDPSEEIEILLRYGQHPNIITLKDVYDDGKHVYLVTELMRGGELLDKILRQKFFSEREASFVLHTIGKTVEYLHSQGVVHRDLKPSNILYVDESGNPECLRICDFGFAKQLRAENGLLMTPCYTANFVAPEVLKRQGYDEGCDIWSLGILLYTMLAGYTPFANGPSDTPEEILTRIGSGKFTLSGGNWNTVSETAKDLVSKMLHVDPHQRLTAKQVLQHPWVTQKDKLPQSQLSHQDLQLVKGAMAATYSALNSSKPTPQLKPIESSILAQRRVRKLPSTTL
SLK, sequence (Q9H2G2 whole entry): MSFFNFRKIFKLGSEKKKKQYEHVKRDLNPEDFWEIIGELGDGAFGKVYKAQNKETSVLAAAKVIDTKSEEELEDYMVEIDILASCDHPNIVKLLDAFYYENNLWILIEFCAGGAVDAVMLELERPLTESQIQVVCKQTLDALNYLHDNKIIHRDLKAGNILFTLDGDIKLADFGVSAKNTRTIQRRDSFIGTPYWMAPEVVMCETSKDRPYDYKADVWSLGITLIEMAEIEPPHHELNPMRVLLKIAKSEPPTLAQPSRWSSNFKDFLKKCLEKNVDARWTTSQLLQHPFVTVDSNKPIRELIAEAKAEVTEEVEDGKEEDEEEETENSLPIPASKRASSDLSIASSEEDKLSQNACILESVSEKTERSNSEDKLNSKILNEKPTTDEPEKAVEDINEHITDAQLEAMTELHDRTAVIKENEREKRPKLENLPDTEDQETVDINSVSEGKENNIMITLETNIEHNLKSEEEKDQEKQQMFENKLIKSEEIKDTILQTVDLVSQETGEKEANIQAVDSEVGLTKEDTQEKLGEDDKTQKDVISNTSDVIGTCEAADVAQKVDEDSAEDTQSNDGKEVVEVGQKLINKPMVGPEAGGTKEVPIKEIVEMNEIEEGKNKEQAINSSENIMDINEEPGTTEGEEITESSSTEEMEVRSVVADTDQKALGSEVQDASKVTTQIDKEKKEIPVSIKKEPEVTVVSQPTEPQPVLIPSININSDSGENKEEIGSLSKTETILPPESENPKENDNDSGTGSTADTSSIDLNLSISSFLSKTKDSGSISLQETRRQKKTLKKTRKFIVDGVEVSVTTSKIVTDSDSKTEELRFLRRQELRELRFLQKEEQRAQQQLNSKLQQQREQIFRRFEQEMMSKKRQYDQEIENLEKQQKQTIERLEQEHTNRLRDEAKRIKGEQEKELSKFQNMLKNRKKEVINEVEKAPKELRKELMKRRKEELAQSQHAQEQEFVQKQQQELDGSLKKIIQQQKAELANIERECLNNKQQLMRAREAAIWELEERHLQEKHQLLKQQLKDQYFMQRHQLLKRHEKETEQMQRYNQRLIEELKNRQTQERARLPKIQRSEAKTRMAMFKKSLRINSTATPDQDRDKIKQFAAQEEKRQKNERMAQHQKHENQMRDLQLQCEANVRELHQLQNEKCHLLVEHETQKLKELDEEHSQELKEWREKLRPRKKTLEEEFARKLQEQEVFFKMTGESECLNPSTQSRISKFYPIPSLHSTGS
MAP3K5, sequence (Q99683 whole entry): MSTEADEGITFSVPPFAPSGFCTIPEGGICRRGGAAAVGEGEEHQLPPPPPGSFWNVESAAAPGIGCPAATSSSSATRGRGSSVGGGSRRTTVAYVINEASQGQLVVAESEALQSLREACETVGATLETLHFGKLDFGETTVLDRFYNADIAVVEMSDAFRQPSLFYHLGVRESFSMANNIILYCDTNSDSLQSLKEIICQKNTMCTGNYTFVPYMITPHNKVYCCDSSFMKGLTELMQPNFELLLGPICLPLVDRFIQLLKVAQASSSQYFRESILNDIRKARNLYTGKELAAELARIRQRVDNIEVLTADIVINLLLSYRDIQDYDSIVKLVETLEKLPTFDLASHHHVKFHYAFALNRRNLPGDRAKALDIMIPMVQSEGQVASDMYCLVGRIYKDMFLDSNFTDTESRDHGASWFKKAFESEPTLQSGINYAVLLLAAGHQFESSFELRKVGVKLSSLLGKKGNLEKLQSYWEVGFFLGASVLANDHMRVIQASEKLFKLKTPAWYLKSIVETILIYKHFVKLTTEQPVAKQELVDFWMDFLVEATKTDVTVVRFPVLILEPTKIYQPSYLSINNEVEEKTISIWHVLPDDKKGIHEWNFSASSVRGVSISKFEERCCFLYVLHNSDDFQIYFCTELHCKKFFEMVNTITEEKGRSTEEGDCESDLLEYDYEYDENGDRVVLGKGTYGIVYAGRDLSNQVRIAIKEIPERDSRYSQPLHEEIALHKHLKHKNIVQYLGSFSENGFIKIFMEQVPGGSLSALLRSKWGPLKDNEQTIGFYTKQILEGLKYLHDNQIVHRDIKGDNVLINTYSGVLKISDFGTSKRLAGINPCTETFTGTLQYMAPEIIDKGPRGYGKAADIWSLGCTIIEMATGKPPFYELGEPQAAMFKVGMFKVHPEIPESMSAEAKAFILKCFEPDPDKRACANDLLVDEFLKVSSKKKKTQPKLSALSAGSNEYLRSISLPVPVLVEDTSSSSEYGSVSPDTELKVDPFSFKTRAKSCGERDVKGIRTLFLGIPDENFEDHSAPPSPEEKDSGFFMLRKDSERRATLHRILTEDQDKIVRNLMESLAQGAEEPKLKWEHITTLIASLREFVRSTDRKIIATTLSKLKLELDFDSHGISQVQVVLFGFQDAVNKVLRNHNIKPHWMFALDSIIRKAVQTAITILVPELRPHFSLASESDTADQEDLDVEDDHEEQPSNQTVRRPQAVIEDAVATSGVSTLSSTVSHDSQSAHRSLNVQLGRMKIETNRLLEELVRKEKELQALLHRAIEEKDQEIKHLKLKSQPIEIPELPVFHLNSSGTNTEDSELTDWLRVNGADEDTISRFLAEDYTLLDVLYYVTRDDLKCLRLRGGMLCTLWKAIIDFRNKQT
NDR2, sequence (Q9Y2H1 whole entry): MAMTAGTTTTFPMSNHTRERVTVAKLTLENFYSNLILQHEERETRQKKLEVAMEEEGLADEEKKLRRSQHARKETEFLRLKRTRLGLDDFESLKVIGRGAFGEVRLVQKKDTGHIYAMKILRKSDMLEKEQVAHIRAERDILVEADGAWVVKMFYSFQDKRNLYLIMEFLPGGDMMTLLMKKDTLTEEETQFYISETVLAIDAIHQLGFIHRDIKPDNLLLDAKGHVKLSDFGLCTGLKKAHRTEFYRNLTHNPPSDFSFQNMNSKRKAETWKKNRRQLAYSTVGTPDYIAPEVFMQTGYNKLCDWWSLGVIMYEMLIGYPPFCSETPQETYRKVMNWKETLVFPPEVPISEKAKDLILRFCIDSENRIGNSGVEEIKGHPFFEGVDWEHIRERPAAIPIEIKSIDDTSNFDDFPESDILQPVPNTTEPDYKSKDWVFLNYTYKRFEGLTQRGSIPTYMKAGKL
CDK10, sequence (Q15131 whole entry): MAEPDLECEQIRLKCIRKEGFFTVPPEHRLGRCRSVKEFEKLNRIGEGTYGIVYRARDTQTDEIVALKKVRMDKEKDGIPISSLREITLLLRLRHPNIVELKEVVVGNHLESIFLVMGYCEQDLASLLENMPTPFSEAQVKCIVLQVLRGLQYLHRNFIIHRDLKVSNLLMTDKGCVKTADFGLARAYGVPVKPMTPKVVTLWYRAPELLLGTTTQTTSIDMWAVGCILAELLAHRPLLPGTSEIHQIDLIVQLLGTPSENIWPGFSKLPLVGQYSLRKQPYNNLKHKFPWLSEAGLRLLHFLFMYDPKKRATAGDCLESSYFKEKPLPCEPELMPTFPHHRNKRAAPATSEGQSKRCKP

Turning to `CN1CCN(Cc2ccc(Nc3ncc(Cl)c(Nc4ccccc4S(=O)(=O)N(C)C)n3)cc2)CC1` [TP-0903], the inhibition at 0.1 µM at NDR2 was -0.6%; at PIP4K2C (TLVIKEVSSEDIADMHSNLSNYHQYIVK), -26%; at PIP4K2C (VKELPTLKDMDFLNK), -26.5%; on MAST3, -22.3%; on TLK1, 16%; at RSK1 domain2 it was -19.8%. Also, the inhibition at 0.1 µM is 4.2% at STLK5 (Activation Loop, read-out: Inhibition vs DMSO); -19% at STLK5 (Lys2, read-out: Inhibition vs DMSO); 33.7% on CDK10; 72.2% at SLK; -9.4% at Erk2; 0.5% on MAP3K5. Moreover, the inhibition at 0.1 µM at ZAK is 7.6%.
